Data as given in patent publication US8673336B2, “Composition, system, and method for modulating release kinetics in implantable drug delivery devices by modifying drug solubility” (Innovational Holdings LLC, priority 2005, dated 2014).
Counter-ions that a name gives are not always drawn.

Legend:
[1] = in vitro cumulative release from low dose imatinib stents (PLGA 85/15 matrix, base and cap); format: physicochemical; details: about 160 micrograms per 16 mm stent, average of three stents
Experimental: The imatinib free-base (slow release) and the imatinib meslate salt (Gleevec) were loaded into holes in stents in a polymer matrix of PLGA 85/15 with a PLGA 85/15 base and cap and the release from the stents was recorded in FIG. 1. A solvent such as NMP or anisol was used to deposit the drug/polymer compositions and then evaporated. The releases shown in FIG. 1 are the average of three stents each. Methods and systems for depositing polymers and drugs within holes in stents are described further in WO 2004/026182 which is incorporated herein by reference.
The dosage for this example was about 160 micrograms normalized for a 16 mm long stent. The free base and salt forms where then combined in the ratios of 86:14, 66:34, and 46:54 and it was shown that the rate of the release (solubility of the drug) is proportional to the percentage of free base or salt. Thus, the selection of a percentage of free base and salt can be used to provide a selected drug release kinetic.
The addition of the free-base form allows the release to be extended past 48 hours to about 72 hours for a formulation of 46% free base and to about 120 hours for a formulation of about 66% free base. While a formulation with 86% free base continues to release imatinib in-vitro at 168 hours and beyond.

[2] = effect of counter ions on in vitro release of imatinib from stents; format: physicochemical; details: total drug load 150 μg to 200 μg; PLA-PLC base and cap, PLGA matrix
Experimental: FIG. 4 illustrates the effect of several counter ions on the in vitro release of a drug, in this example imatinib. Total drug load was 150 μg to 200 μg. PLA-PLC was used in the base and cap while the matrix containing the drug was PLGA as in Examples 1 and 2.

For `Cc1ccc(NC(=O)c2ccc(CN3CCN(C)CC3)cc2)cc1Nc1nccc(-c2cccnc2)n1` [imatinib mesylate], the “time until release is essentially complete / extent of release duration (FIG. 1)” value [1] was “about 48 hours”, the “rate of release from stents (FIG. 1)” value ([1]; listed as salt) was “fastest release” and the “cumulative in vitro release (FIG. 4)” value [2] was “significantly higher cumulative release, relatively quickly, than imatinib salicylate”.

With `Cc1ccc(NC(=O)c2ccc(CN3CCN(C)CC3)cc2)cc1Nc1nccc(-c2cccnc2)n1` [free base, imatinib] the “rate of release from stents (FIG. 1)” value [1] was “slowest release”.

For `Cc1ccc(NC(=O)c2ccc(CN3CCN(C)CC3)cc2)cc1Nc1nccc(-c2cccnc2)n1.O=C(O)c1ccccc1O` [imatinib salicylate], the “cumulative in vitro release (FIG. 4)” value [2] was “significantly higher that that of imatinib”.
